Patent US11603515B2, “Cell culture substrate, cancer cell aggregate and method for manufacturing same using said substrate, and drug screening method using said cancer cell aggregate” (NATIONAL UNIVERSITY CORPORATION HOKKAIDO UNIVERSITY, priority 2017, dated 2023)

System: microtumor consisting of PCI-55 cells
Experiment: Evaluation of anticancer agent using microtumors (morphological change and molecular expression)
Type: cell-based, human
Protocol: A total of six types of cell culture substrates with Roughness (+) or Roughness (−) of 30, 95, or 300 μm in spot diameter were used to culture human pancreatic ductal adenocarcinoma cell line PCI-55. Immediately before culturing the cells, each of the cell culture substrates was immersed in distilled water for about 30 minutes to detach the polyparaxylene layer. Then, the cell culture substrate was washed using water, sterilized with 70% ethanol, and air dried. The cell culture substrate was then fixed to the inner bottom of a culture dish (Asnol petri dish, AS ONE) with 40 mm in diameter and 13.5 mm in depth via Vaseline. After adding DMEM and washing the cell culture substrate for three times, 3×10^6 of PCI-55 cells suspended in 3 mL of DMEM were seeded on each cell culture substrate, and cultured at 37 degrees Celsius overnight to for 48 hours.
Morphological change in microtumors was observed, by adding nocodazole known as an anticancer agent with microtubule polymerization inhibitory activity to a culture medium of the microtumor consisting of PCI-55 cells formed on the cell culture substrate 1 in Example 2 so that the final concentration becomes 1 μM.

[1] = nocodazole 1 μM, 24 hours after treatment, fluorescence images (FIG. 49)

## COC(=O)Nc1nc2ccc(C(=O)c3cccs3)cc2[nH]1 [nocodazole]
[1]
  Cell-in-cell structure of the microtumor: destructed
  Membranous expression of α-tubulin in the microtumor: disappeared
  Release of cells from the inner microtumor: a number of viable cells were scattered so as to overflow from the inner microtumor
Nocodazole final concentration 1 μM, PCI-55 microtumor on cell culture substrate 1, time-lapse DIC (FIG. 48)
  Adhesion of microtumor to the spot on the cell culture substrate / morphology: prevented from adhering to the spot on the cell culture substrate, and formed spheroidal morphology
Nocodazole treatment, Annexin V and EthD time-lapse images (FIG. 50)
  Accumulation of Annexin V on the surface of microtumor (dead cell phenotype): reduced the accumulation of Annexin V on the surface of microtumor
